The source made the active and inactive calls.
Assays:
[1] = Luminescence-based cell-based high throughput dose response assay to identify activators of the DAF-12 from the parasite S. stercoralis (ssDAF-12).; format: functional
cells [2] = assay: cells
[3] = biological target: T1, Oxysterols receptor LXR-beta (Homo sapiens, UniProt P55055); format: functional, cell-based;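 also: Cell-based luminescence dose-response assay of agonist activity at LXR, run as a confirmatory counterscreen to a daf-12 agonist screen; HEK293 cells with Gal4-LXR fusion and GAL4-driven luciferase reporter; agonist potency from rising luciferase signal of a Gal4-LXR reporter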
T1 sequence (P55055 whole entry): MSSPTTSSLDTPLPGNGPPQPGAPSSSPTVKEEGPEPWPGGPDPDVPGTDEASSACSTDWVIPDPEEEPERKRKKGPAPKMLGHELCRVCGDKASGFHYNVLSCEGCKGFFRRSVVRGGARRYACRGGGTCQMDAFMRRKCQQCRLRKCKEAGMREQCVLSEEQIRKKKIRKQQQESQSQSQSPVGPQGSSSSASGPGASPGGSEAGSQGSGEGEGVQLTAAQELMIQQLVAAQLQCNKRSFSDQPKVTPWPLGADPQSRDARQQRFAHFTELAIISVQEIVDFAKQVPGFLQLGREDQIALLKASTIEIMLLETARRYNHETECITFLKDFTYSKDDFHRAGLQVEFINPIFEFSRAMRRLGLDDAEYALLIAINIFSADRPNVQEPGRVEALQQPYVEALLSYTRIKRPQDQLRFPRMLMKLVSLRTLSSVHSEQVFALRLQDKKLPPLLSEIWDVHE

[4] = microbe, parasite or virus in culture; format: functional; settings: Mycobacterium tuberculosis
[5] = inhibitors of intracellular T. cruzi replication, confirmation, NIH3T3 host cells, beta-gal luminescence (AID 2044); format: functional, cell-based;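 also: intracellular parasites grown in NIH/3T3 mouse fibroblasts as host cells; luminescent beta-galactosidase reporter signal from transgenic T. cruzi replicating inside host cells; inhibitors lower the luminescence signal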
[6] = cytotoxicity toward NIH3T3 fibroblasts, dose response, counter-screen, cell-based, ATP luminescence, mouse fibroblasts (AID 2010); format: functional;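 also: cells exposed to compound for about 90 hours before reading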
cells [7] = assay: cells; remark: listed apart in the source
[8] = biological target: Disintegrin and metalloproteinase domain-containing protein 17 (Homo sapiens, UniProt P78536); assay: exosite inhibitors of ADAM17, dose response, biochemical (AID 743260)
[9] = ADAM10 protease inhibitors, dose response, selectivity assay for ADAM17 exosite inhibitor project, biochemical, FRET peptide substrate, recombinant human ADAM10 (AID 743259);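 also: ADAM10 enzyme cleaving a FRET peptide substrate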
Albumin = Albumin (Bos taurus, UniProt P02769); assay: Counterscreen for inhibitors of T-cell receptor (TCR)-CD3 interaction: Fluorescence-based biochemical high throughput dose response assay to identify inhibitors of T-cell receptor (TCR)-CD3 interaction using a TAMRA-labeled BSA probe.; format: functional
[10] = biological target: T2, RNA-binding protein pos-1 (Caenorhabditis elegans, UniProt G5EF15); assay: inhibitors of POS-1/mex-3 RNA binding, dose response, biochemical, fluorescence polarization (AID 1964);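 also: purified POS-1 fused to maltose binding protein made in E. coli; potency of compounds blocking POS-1 binding to fluorescent RNA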
T2 sequence (G5EF15 whole entry): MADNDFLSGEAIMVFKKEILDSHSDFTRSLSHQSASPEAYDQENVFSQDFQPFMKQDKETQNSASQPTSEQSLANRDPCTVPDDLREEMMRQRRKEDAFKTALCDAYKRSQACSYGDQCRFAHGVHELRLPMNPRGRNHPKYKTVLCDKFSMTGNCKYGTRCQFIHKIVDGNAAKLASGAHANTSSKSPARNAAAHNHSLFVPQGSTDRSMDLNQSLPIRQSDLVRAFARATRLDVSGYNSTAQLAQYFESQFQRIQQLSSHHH

[11] = biological target: T3, Zinc finger protein mex-5 (Caenorhabditis elegans, UniProt Q9XUB2); assay: MEX-5/TCR-2 RNA interaction inhibitors, dose response, biochemical, C. elegans, fluorescence polarization (AID 1960)
T3 sequence (Q9XUB2 whole entry): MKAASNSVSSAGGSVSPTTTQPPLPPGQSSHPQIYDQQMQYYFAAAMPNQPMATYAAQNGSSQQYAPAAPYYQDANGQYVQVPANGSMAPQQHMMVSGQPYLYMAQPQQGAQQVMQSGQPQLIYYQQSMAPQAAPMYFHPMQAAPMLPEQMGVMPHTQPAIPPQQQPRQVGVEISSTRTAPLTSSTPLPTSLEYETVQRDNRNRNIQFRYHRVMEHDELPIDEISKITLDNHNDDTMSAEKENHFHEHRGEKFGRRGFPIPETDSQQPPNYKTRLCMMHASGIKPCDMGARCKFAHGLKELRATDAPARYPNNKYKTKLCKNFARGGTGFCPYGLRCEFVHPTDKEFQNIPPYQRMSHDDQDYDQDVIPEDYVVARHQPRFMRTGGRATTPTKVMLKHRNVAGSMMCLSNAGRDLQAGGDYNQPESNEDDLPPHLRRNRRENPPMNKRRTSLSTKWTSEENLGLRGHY

[12] = biological target: Mitogen-activated protein kinase 10 (Homo sapiens, UniProt P53779); assay: Dose response biochemical screening assay for inhibitors of c-Jun N-Terminal Kinase 3 (JNK3). [Related pubchem assays: 746 ]
[13] = inhibitors of PGC1a acetylation in cells, dose response, cell-based, cherry-picked samples (AID 720514); format: functional;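 also: potency may reflect raised or lowered acetylation signal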
[14] = biological target: T4, Rac GTPase-activating protein 1 (Homo sapiens, UniProt Q9H0H5); assay: MgcRacGAP GTPase-activating activity inhibitors, confirmation, biochemical, ADP Hunter fluorescence, primary and confirmatory (AID 624330); format: functional
T4 sequence (Q9H0H5 whole entry): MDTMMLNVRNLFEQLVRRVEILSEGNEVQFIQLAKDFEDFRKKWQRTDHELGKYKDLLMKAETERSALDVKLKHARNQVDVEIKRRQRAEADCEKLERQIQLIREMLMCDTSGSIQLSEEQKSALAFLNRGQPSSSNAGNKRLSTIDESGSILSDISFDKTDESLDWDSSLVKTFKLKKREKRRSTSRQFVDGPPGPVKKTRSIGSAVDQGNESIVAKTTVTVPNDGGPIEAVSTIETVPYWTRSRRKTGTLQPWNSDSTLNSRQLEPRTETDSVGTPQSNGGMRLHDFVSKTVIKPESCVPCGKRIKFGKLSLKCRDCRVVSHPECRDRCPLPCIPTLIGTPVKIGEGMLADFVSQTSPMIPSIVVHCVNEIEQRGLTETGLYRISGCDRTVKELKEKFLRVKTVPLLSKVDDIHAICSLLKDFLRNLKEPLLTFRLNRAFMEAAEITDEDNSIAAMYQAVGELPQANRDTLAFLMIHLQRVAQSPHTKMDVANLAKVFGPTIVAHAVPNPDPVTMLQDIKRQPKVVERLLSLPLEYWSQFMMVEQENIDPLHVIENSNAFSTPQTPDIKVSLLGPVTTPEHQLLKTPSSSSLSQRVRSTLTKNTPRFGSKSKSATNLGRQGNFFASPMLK

H9c2 = assay: cells; format: functional, cell-based; settings: Rattus norvegicus, H9c2, Myocardium;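 also: confirmatory concentration-response retest of ultra-high-throughput screening hits for modulation of myocardial damage; cell death induced by hydrogen peroxide oxidative stress; compound pretreatment for 60 min then peroxide exposure for 2 h; potency is for protecting the cells against peroxide damage rather than for killing them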
Paired box protein Pax-8 = Paired box protein Pax-8 (Homo sapiens, UniProt Q06710); assay: inhibitors of PAX8-driven TPO luciferase reporter, dose response, RMG-I cells, cherry-pick (AID 687027); format: functional, cell-based;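 also: luciferase reporter driven by Pax8 target thyroperoxidase promoter measured by SteadyGlo luminescence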
[15] = non-specific cell cytotoxicity, dose response, cytotoxicity control for PAX8 inhibitor project, plate reader, dry powder samples (AID 743021); format: functional, cell-based
[16] = inhibitors of SNCA 5'UTR-driven reporter translation, confirmation, H4 neuroglioma cells, luminescence (AID 1988); format: functional, cell-based
[17] = Luminescence Cell-Based Dose Response HTS to Identify Inhibitors of 5'UTR Stem-Loop Driven Prion Protein mRNA Translation in H4 Neuroglioblastoma Cells. [Related pubchem assays: 1827 (Project Summary), 1813 (Primary HTS)]; format: functional
[18] = P. falciparum 3D7-ScDHODH growth inhibitors, dose response, SYBR Green, dry powder samples (AID 1159570); format: functional, cell-based;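 also: parasite growth measured after 72 hours of compound exposure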
[19] = P. falciparum ATP4 D1247Y mutant growth inhibitors, dose response, NITD609-resistant line, SYBR Green, dry powder (AID 1159571); format: functional, cell-based;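 also: parasites synchronized at ring stage by sorbitol before testing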
[20] = P. falciparum Dd2 growth inhibitors, dose response, SYBR Green, cherry-picked samples (AID 1159567); format: functional, cell-based
[21] = HepG2 cell cytotoxicity, dose response, cytotoxicity control, plate reader, dry powder samples (AID 1159569); format: functional, cell-based;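 also: inhibitor potency with signal falling toward the positive control level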
[22] = P. falciparum Dd2 growth inhibitors, dose response, SYBR Green, dry powder samples (AID 1159566); format: functional, cell-based;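 also: potency for growth inhibition with lower SYBR green DNA signal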
[23] = HepG2 cell cytotoxicity, dose response, cytotoxicity control, cherry-picked samples (AID 1159577); format: functional, cell-based

Sequence of Disintegrin and metalloproteinase domain-containing protein 17 (P78536 whole entry, the tested form may be a part): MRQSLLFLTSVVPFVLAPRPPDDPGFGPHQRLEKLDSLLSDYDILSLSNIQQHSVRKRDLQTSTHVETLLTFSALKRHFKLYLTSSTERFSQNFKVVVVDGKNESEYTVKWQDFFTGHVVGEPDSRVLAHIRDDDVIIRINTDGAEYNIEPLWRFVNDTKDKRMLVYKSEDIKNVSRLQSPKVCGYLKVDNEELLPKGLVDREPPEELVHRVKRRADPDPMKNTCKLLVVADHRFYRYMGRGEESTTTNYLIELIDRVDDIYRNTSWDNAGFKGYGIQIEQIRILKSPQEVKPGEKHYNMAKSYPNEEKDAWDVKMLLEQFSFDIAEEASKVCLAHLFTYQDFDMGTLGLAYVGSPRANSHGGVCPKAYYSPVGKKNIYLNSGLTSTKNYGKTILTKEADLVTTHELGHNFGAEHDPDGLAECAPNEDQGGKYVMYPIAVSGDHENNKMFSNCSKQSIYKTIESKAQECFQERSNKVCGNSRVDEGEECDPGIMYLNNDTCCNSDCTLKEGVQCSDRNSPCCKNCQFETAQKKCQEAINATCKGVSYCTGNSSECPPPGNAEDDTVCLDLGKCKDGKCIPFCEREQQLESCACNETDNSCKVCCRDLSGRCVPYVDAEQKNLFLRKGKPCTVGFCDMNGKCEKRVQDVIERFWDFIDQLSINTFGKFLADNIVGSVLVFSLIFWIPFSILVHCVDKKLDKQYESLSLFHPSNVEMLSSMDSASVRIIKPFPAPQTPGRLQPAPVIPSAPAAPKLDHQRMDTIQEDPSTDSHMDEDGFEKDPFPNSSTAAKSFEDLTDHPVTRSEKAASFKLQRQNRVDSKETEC
Sequence of Albumin (P02769 whole entry, the tested form may be a part): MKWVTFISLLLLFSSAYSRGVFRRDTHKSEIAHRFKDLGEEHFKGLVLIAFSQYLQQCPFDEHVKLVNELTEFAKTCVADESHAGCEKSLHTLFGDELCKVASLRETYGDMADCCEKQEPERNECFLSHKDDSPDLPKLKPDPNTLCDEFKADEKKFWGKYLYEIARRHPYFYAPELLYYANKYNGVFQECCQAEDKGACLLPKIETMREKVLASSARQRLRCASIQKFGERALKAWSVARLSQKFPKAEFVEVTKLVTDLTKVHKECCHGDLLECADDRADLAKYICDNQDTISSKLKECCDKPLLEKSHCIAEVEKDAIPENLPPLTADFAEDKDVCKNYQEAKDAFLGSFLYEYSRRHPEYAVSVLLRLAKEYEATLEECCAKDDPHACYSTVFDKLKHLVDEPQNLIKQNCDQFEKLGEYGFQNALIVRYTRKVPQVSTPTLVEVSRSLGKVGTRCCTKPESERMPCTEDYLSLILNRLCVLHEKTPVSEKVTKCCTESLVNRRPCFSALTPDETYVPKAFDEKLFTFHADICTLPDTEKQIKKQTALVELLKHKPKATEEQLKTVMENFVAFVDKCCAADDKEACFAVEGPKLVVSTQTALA
Sequence of Mitogen-activated protein kinase 10 (P53779 whole entry): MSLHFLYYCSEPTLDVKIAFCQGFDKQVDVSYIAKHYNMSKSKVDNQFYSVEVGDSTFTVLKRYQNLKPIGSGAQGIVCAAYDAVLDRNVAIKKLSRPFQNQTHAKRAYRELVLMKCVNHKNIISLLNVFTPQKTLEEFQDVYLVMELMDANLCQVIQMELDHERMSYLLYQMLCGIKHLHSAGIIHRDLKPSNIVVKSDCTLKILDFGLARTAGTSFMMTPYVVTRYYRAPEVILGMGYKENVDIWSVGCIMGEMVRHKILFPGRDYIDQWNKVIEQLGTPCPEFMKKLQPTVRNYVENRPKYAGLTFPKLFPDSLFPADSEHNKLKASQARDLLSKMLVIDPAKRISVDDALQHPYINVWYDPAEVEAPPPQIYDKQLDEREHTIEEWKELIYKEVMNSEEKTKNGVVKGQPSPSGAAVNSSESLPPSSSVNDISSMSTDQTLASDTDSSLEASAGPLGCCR
Sequence of Paired box protein Pax-8 (Q06710 whole entry): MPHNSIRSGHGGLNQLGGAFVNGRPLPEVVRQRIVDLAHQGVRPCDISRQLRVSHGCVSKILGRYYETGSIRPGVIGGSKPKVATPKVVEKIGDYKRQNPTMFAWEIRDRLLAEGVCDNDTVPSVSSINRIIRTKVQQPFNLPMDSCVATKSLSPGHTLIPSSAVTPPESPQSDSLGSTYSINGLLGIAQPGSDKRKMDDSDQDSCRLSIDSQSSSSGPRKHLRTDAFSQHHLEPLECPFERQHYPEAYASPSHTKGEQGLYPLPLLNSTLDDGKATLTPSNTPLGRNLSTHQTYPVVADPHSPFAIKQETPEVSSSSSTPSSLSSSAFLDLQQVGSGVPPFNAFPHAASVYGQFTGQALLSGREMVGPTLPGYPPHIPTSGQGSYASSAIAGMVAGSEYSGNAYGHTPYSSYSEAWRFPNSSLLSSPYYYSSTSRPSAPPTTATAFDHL

CCc1ccc(-n2nc3cc(C)c(N)cc3n2)cc1
IC50 [1]: > 67.5 µM (inactive)
EC50 (cells [2]): > 67.5 µM (inactive)
EC50 [3]: > 67.5 µM (inactive)
CC50 [4]: > 40 µM (active)

CC1(c2ccccc2)CC(C)(C)N(C(=O)c2cc([N+](=O)[O-])cc([N+](=O)[O-])c2)c2ccccc21 (stereo not drawn)
EC50 [5]: < 0.1 µM (active)
EC50 [6]: 5.58 µM (active)
EC50 (cells [7]): 0.214 µM (active)

O=C(NC(=S)Nc1ccc2c(c1)OCCO2)c1cccc2ccccc12
IC50 [8]: > 69.5 µM (inactive)
IC50 [9]: > 69.5 µM (inactive)

O=C(NNC(=O)c1cc(Cl)ccc1O)c1cccc(S(=O)(=O)N2CCOCC2)c1
IC50 (Albumin): > 94.1 µM (inactive)
EC50 [10]: 18.7 µM (inconclusive)
EC50 [11]: 11.6 µM (active)

COc1cccc2c(O)c(C/C=C(/C)Cl)c(C)nc12
IC50 [12]: 75 µM (not active)

O=C1c2cccc(OCC(=O)N3CCCc4ccccc43)c2CCN1Cc1ccc(Br)cc1
IC50 [8]: > 69.5 µM (inactive)
IC50 [9]: > 69.5 µM (inactive)

COC(=O)c1nn(-c2ccccc2)ccc1=O
AC50 [13]: 5.56 µM (active)

Cc1ccc(NC(=O)COC(=O)/C(=C/c2cccs2)c2cccs2)cc1S(=O)(=O)N(C)C
IC50 [8]: > 69.5 µM (inactive)
IC50 [9]: > 69.5 µM (inactive)

Cc1ccc(O)c(-c2cc(C(=O)Nc3ccc(S(=O)(=O)Nc4nccc(C)n4)cc3)[nH]n2)c1
IC50 (Albumin): > 94.1 µM (inactive)
EC50 [10]: 13.1 µM (inconclusive)
EC50 [11]: 6.59 µM (active)

Cc1cc(Cl)c(OCCOCCN2CCN(C)CC2)c(Br)c1
EC50 [5]: < 0.1 µM (active)
EC50 [6]: > 60 µM (not active)
EC50 (cells [7]): 0.294 µM (active)
IC50 [14]: 63.9 µM (active)

Cc1ccc(-c2nnc(-c3cccc4ccccc34)o2)cc1
EC50 (cells [2]): > 67.5 µM (inactive)
EC50 [3]: > 67.5 µM (inactive)

CCC(c1nnnn1Cc1ccccc1)N1CCC(n2c(O)nc3ccccc32)CC1 (stereo not drawn)
IC50 (H9c2): > 79 µM (inactive)
AC50 (Paired box protein Pax-8): 3.8 µM (active)
AC50 [15]: 41.4 µM (active)

C[C@@H]1CN([C@@H](C)CO)C(=O)c2c(c3ccccc3n2C)-c2ccccc2CO[C@H]1CN(C)S(=O)(=O)c1ccsc1
AC50 [13]: 29.2 µM (active)

CC(=O)Nc1sc2c(c1-c1nc3ccccc3s1)CCCN(C(C)C)C2
IC50 [1]: > 67.5 µM (inactive)

Cc1ccc2c(c1)s/c(=N/C(=O)c1cccs1)n2C
EC50 [16]: 4.79 µM (active)
EC50 (cells [2]): > 67.6 µM (inactive)
EC50 [3]: > 67.6 µM (inactive)
EC50 [17]: 4.15 µM (active)

C[C@@H]1CN([C@@H](C)CO)S(=O)(=O)c2ccc(/C=C/c3ccccc3)cc2O[C@H]1CN(C)C(=O)c1ccc2c(c1)OCO2
AC50 [18]: 2.96 µM (active)
AC50 [19]: 1.18 µM (active)
AC50 [20]: 2.43 µM (active)
AC50 [21]: 87.3 µM (active)
AC50 [22]: 2.09 µM (active)

COc1ccc2c3c(n(C)c2c1)[C@H](CO)NCC31CCN(CC2CCCC2)CC1
AC50 [18]: 0.449 µM (active)
AC50 [23]: 35.5 µM (active)
AC50 [19]: 0.425 µM (active)
AC50 [20]: 0.738 µM (active)
AC50 [21]: 46.3 µM (active)
AC50 [22]: 0.481 µM (active)

COc1ccccc1S(=O)(=O)N(C)C[C@@H]1Oc2cc(C#CCC3CCCC3)ccc2S(=O)(=O)N([C@H](C)CO)C[C@H]1C
AC50 [18]: 0.227 µM (active)
AC50 [23]: 28.6 µM (active)
AC50 [19]: 0.104 µM (active)
AC50 [20]: 0.309 µM (active)
AC50 [21]: 23.8 µM (active)
AC50 [22]: 0.146 µM (active)

Source: ChEMBL document CHEMBL1201862, “PubChem BioAssay data set” (2004)
